Assay results taken from PMC3350427, “In vitro antiproliferative/cytotoxic activity on cancer cell lines of a cardanol and a cardol enriched from Thai Apis mellifera propolis” (BMC Complementary and Alternative Medicine, 2012).
Values after ≈ are worked out from the molar mass of the structure shown. Values joined by “and” are separate entries in the source; they are usually repeats but may differ in a detail not shown here. Equal values may be shown once. Read-outs that look alike come from different tables or passages of the source.

Experiments:
HeLa tumor cells = system: HeLa tumor cells; set-up: method as in PMID 19497755; details: cited from earlier work
[1] = system: BT474 cells (duet carcinoma); experiment: MTT antiproliferative/cytotoxic assay, BT474; assay type: cell-based, human; details: for IC50: Homo sapiens, BT-474, BT474, 72 h exposure, MTT, read-out: IC50, in vitro antiproliferative/cytotoxic activity
Source text: (§1) The five selected cancer cell lines used in this research were derived from human duet carcinoma (BT474, ATCC No. HTB 20), undifferentiated lung (Chaco I, National Cancer Institute), liver hepatoblastoma (Hep-G2, ATCC No. HB8065), gastric carcinoma (KATO-III, ATCC No. HTB 103) and human colon adenocarcinoma (SW620, ATCC No. CCL 227) cancers. In addition, the non-transformed human foreskin fibroblast cell line (Hs27, ATCC No. CRL 1634) was used as a comparative control. All cell lines were obtained from the Institute of Biotechnology and Genetic Engineering, Chulalongkorn University. The five cancer cell lines were cultured in RPMI 1640 medium containing 5% (v/v) fetal calf serum (FCS), while the Hs27 cell line was cultured in Basal Iscove medium containing 5% (v/v) FCS, at 37°C with 5% (v/v) CO2 [28].
(§2) The MTT assay was performed as reported by Santos et al. and Hernandez et al.. […] The supernatant was then removed, the cells permeabilized and the formazan crystals dissolved by aspiration in 150 μl of DMSO and 25 μl of 0.1 M glycine prior to measuring the absorbance at 540 nm by a microplate reader. […] By assuming an equal mitochondrial metabolic activity per living cell, the absorbance is then related to the relative number of viable cells and so is reduced, relative to the control, by any antiproliferation and/or cytotoxic activity of the test compound.
The absorbance at 540 nm of the test compound treated cancer cells and the solvent only control was used to calculate the relative number of viable cells, setting that for the control as 100%. The relative number of viable cells, as a % of the control, was then calculated as follows: […]
(§3) where (Abs of sample) and (Abs of control) are defined as the absorbance at 540 nm of the treated cells and the control cells, respectively.
The IC50 values were graphically obtained by plotting the absorbance obtained against the corresponding different concentrations of the test compound used, and are reported as the mean ± 1 standard error (SE). Data were statistically analyzed using the Kruskal-Wallis One Way Analysis of Variance. […]

[2] = system: human colorectal cancer cell line (CRC); set-up: method as in PMID 15996024; details: 72 h treatment, cited from earlier work
SW620 cells [3] = experiment: DNA fragmentation (agarose-TBE gel), SW620; assay type: cell-based, human; details: SW620, 72 h at IC50, agarose-TBE gel
Method: (§4) The morphology of the SW620 or Hs27 cells treated with each test compound was compared to those treated with only the DMSO solvent as the control. Cells were released by standard trypsin and aspiration, centrifugally washed at 2,000 × g at 15-25°C for 5 min and finally the cell pellet was resuspended in 200 μl of PBS. To this 20 μl of proteinase K (> 600 mAU/ml) was added and total DNA was extracted using a QIAMP mini kit (Qiagen, cat. no. 51304), as per the manufacturer's instructions. […] After electrophoresis, the gel was stained with 10 μg/ml of ethidium bromide (EtBr) for 10 min, destained in distilled water for 20 min and the DNA visualized by ultraviolet transillumination.

Hs27 cells [4] = experiment: DNA fragmentation (agarose-TBE gel), Hs27; assay type: cell-based, human; details: Hs27, 72 h
Method: as §4

SW620 cells [5] = experiment: Cell morphology in culture, SW620; assay type: cell-based, human; details: at IC50 ([…] / 3.0 μg/ml)
Method: as §4

[6] = MTT antiproliferative/cytotoxic assay, non-transformed Hs27; assay type: cell-based; details: human, Hs27 non-transformed foreskin fibroblast cells, read-out: IC50, in vitro antiproliferative/cytotoxic activity
Source text: as §1, with “The five cancer cell lines were cultured in RPMI 1640 medium containing 5% (v/v) fetal calf serum (FCS), while the Hs27 cell line was cultured in Basal Iscove medium containing 5% (v/v) FCS, at 37°C with 5% (v/v) CO2 [28].” left out
as §2
(§5) The absorbance at 540 nm of the test compound treated cancer cells and the solvent only control was used to calculate the relative number of viable cells, setting that for the control as 100%. […]

[7] = system: KATO-III cells (gastric carcinoma); experiment: MTT antiproliferative/cytotoxic assay, KATO-III; assay type: cell-based; details: Homo sapiens, 72 h exposure, read-out: IC50, in vitro antiproliferative/cytotoxic activity
Source text: as §1, with “The five cancer cell lines were cultured in RPMI 1640 medium containing 5% (v/v) fetal calf serum (FCS), while the Hs27 cell line was cultured in Basal Iscove medium containing 5% (v/v) FCS, at 37°C with 5% (v/v) CO2 [28].” left out
as §2, §5

[8] = system: five human cancer cell lines (BT474, Chaco, Hep-G2, KATO-III, SW620); experiment: MTT assay, summary over the five cancer cell lines; assay type: cell-based; details: 72 h exposure, read-out: IC50 values, range across the five cancer cell lines
Source text: as §1, with “The five cancer cell lines were cultured in RPMI 1640 medium containing 5% (v/v) fetal calf serum (FCS), while the Hs27 cell line was cultured in Basal Iscove medium containing 5% (v/v) FCS, at 37°C with 5% (v/v) CO2 [28].” left out
as §2, §5

[9] = system: SW620 cells (colon adenocarcinoma); experiment: MTT antiproliferative/cytotoxic assay, SW620; assay type: cell-based, human; details: for IC50 / IC50, in vitro antiproliferative/cytotoxic activity: SW620, 72 h exposure, MTT; for IC50: read-out: IC50, in vitro antiproliferative/cytotoxic activity
Source text: as §1
The MTT assay was performed as reported by Santos et al. and Hernandez et al.. For each of the five cancer cell lines, 5 × 10^3 cells in 200 μl of RPMI 1640 medium containing 5% (v/v) FCS were transferred per well of a 96 well tissue culture plate, and incubated at 37°C in 5% (v/v) CO2 for 24 h prior to the addition of 2 μl/well of the test extract in dimethylsulfoxide (DMSO) at various final concentrations. The addition of 2 μl/well of DMSO alone was used as the control. Cells were then incubated as above for 72 h before 10 μl of 5 mg/ml MTT was added and incubated for another 4 h. The supernatant was then removed, the cells permeabilized and the formazan crystals dissolved by aspiration in 150 μl of DMSO and 25 μl of 0.1 M glycine prior to measuring the absorbance at 540 nm by a microplate reader. Three replications of each trial were performed. By assuming an equal mitochondrial metabolic activity per living cell, the absorbance is then related to the relative number of viable cells and so is reduced, relative to the control, by any antiproliferation and/or cytotoxic activity of the test compound.
The absorbance at 540 nm of the test compound treated cancer cells and the solvent only control was used to calculate the relative number of viable cells, setting that for the control as 100%. The relative number of viable cells, as a % of the control, was then calculated as follows:
Therelative(% )numberofviablecells = (Absofsample)×100/(Absofcontrol)
as §3
The IC50 values were graphically obtained by plotting the absorbance obtained against the corresponding different concentrations of the test compound used, and are reported as the mean ± 1 standard error (SE). Data were statistically analyzed using the Kruskal-Wallis One Way Analysis of Variance. Significance was accepted at the P < 0.05 level.

[10] = system: five cancer cell lines and the control Hs27 cell line; experiment: MTT assay, summary over the five cancer cell lines and Hs27; assay type: cell-based; details: Homo sapiens, 72 h exposure, read-out: IC50 values, range across the five cancer cell lines and the control Hs27 cell line
Source text: as §1, with “The five cancer cell lines were cultured in RPMI 1640 medium containing 5% (v/v) fetal calf serum (FCS), while the Hs27 cell line was cultured in Basal Iscove medium containing 5% (v/v) FCS, at 37°C with 5% (v/v) CO2 [28].” left out
as §2, §5

[11] = system: Hep-G2 cells (liver hepatoblastoma); experiment: MTT antiproliferative/cytotoxic assay, Hep-G2; assay type: cell-based; details: Homo sapiens, HepG2, Hep-G2, 72 h exposure, read-out: IC50, in vitro antiproliferative/cytotoxic activity
Source text: as §1, with “The five cancer cell lines were cultured in RPMI 1640 medium containing 5% (v/v) fetal calf serum (FCS), while the Hs27 cell line was cultured in Basal Iscove medium containing 5% (v/v) FCS, at 37°C with 5% (v/v) CO2 [28].” left out
as §2, §5

Hs27 cells [12] = experiment: Cell morphology in culture, Hs27; assay type: cell-based, human; details: Hs27, up to 96 h, same doses as for SW620
Method: as §4

[13] = system: Chaco cells (undifferentiated lung cancer); experiment: MTT antiproliferative/cytotoxic assay, Chaco; assay type: cell-based; details: Homo sapiens, 72 h exposure, read-out: IC50, in vitro antiproliferative/cytotoxic activity
Source text: as §1, with “The five cancer cell lines were cultured in RPMI 1640 medium containing 5% (v/v) fetal calf serum (FCS), while the Hs27 cell line was cultured in Basal Iscove medium containing 5% (v/v) FCS, at 37°C with 5% (v/v) CO2 [28].” left out
as §2, §5

B16-F10 melanoma cells = system: B16-F10 melanoma cells; set-up: method as in PMID 20623613; details: cited from earlier work
[14] = read-out: IC50, antiproliferative activity
[15] = mean ± 1 SE, ND in Table 4 = no IC50 obtained, no significant activity in tested concentration range

## CC(C)=CC[C@H]1C[C@@]2(CC=C(C)C)C(=O)[C@](C(=O)c3ccccc3)(C(=O)C3=C2O[C@H](C(C)(C)O)C3)C1(C)C [hyperibone A]
HeLa tumor cells
  IC50, antiproliferative activity: 0.091 µg/mL (≈ 0.175 µM)
HeLa tumor cells; [14]
  IC50: 0.176 µM

## O=C(/C=C/c1ccc(O)c(O)c1)OCCc1ccccc1 [CAPE, caffeic acid phenethyl ester]
[1]; in terms of molarity, CAPE on MDA-231/MCF-7
  fold higher IC50 of CAPE than compound 2 (cardol) on BT474: ~1.5 fold
[2]; [14]
  IC50: 22.7 µM
[2]
  IC50, antiproliferative activity: 6.47 µg/mL (≈ 22.8 µM)

## CCCCCCCCCCCCCCCc1cc(O)cc(O)c1 [Compound 2]
SW620 cells [3]
  evidence of fragmentation of the DNA: neither as an apoptotic ladder nor a general degradation smear
[1]; [15]
  IC50: 4.41 ± 0.15 µg/mL
[1]
  IC50: 9.61 ± 0.33 µM
Hs27 cells [4]
  evidence of fragmentation of the DNA: neither as an apoptotic ladder nor a general degradation smear
SW620 cells [5]; SW620, 24 h
  cell morphology: No significant change in the cell morphology
SW620 cells [5]; SW620, 48 h
  cell morphology: vacuolation could be seen inside the cells
SW620 cells [5]; SW620, 72 h
  cell morphology: apparent DNA condensation within the nucleus was visible
SW620 cells [5]; SW620, 96 h
  cell morphology: significantly higher levels of cells with DNA condensation within their nucleus
[6]; Hs27, 72 h exposure
  IC50 at 72 h: 1.3 ± 0.33 µM
[6]; Hs27 non-transformed control, 72 h exposure, mean ± 1 SE
  IC50 at 72 h: 5.97 ± 0.15 µg/mL
[7]; [15]
  IC50: 4.03 ± 0.13 µg/mL
[7]
  IC50: 8.78 ± 0.28 µM
[8]
  IC50: 3.13 µg/mL to 6 µg/mL and 6.82 µM to 13.1 µM
[9]; Homo sapiens, SW-620, 72 h, mean ± 1 SE, ND in Table 4 = no IC50 obtained, no significant activity in tested concentration range
  IC50: 3 µg/mL
[9]; Homo sapiens, SW-620, 72 h
  IC50: 6.54 µM
[9]; [15]
  IC50, in vitro antiproliferative/cytotoxic activity: < 3.125 µg/mL
[9]; mean ± 1 SE, ND in Table 4 = no IC50 obtained, no significant activity in tested concentration range, listed as compound 2
  IC50, in vitro antiproliferative/cytotoxic activity: < 3.13 µg/mL
[9]; listed as compound 2
  IC50: < 6.8 µM
[9]
  IC50: < 6.81 µM
[9]; in terms of molarity
  fold lower IC50 on SW620 than IC50 of CAPE on CRC: over 3.3 fold
[10]
  IC50: 3.13 µg/mL to 5.97 µg/mL and 6.82 µM to 13 µM
[11]; [15]
  IC50: 5.97 ± 0.15 µg/mL
[11]
  IC50: 1.3 ± 0.33 µM
Hs27 cells [12]
  cell morphology: no morphological changes were observed
[13]; [15]
  IC50: 5.78 ± 0.07 µg/mL
[13]
  IC50: 12.6 ± 0.15 µM

## CCCCCCCCCCCCCCCc1cc(O)cc(O)c1 [cardol (C15:0)]
B16-F10 melanoma cells
  IC50, cytotoxicity: 8.352 µg/mL (≈ 26.1 µM)
  complete lethality concentration: 40 μM and 13.92 μg/ml
B16-F10 melanoma cells; read-out: IC50, cytotoxicity
  IC50: 24 µM
